Assay [1] addresses T1, E3 ubiquitin-protein ligase XIAP (Homo sapiens, UniProt P98170). As to the kind of experiment: Binding affinity to the BIR3 domain of X-linked IAP.
The target in assay [2] is T1, E3 ubiquitin-protein ligase XIAP. Kind of assay: Relief of caspase inhibition in reconstituted assay (APAF-1, caspase-9, procaspase-3) with XIAP.
Assay [3] shares this target. As to the kind of experiment: Relief of caspase inhibition in reconstituted assay (APAF-1, caspase-9, procaspase-3) with BIR3 domain of XIAP.
Assay [4] is described as follows: The compound was tested for toxicity against human NSCL cancer cell line NCI-H23. The assay is classed as functional, cell-based. Conditions: cancer cell lines.
Another assay has as its system HL-60. As to the kind of experiment: cells. As to conditions: Homo sapiens.
The nature of assay [5]: The compound was tested for toxicity against human ovarian cancer cell line SK-OV-3. Conditions: cancer cell lines. The class given is functional, cell-based.
A short description of assay [6]: The compound was tested for toxicity against human breast cancer cell line BT-549. The class given is functional, cell-based. Conditions: cancer cell lines.
The nature of assay [7]: The compound was tested for toxicity against human breast cancer cell line MDA-MB-231. The assay is classed as functional, cell-based. As to conditions: cancer cell lines.
Assay [8] is described as follows: The compound was tested for toxicity against human NSCL cancer cell line NCI-H522. The assay is classed as functional, cell-based. As to conditions: cancer cell lines.
The subject of a further assay is SK-MEL-5. Kind of assay: cells. As to conditions: Homo sapiens.
Assay [9] is described as follows: The compound was tested for toxicity against human renal cancer cell line RXF-393. The assay is classed as functional, cell-based. As to conditions: cancer cell lines.

Values joined by “and” are separate entries in the source; they are usually repeats but may differ in a detail not shown here. Identical values can stand only once. Numbered stars: 1 amine (or outer) side, 2 acyl side, 3 side chain; on linkers, the order of the positions; unused ones are H or OH. Square brackets hold non-standard residues; d marks the D form. Peptide text beside a SMILES is read from it. ξ: configuration not given here. Phe(4-Cl) = N[C@@H](Cc1ccc(Cl)cc1)C(=O)O; 1Nal = N[C@@H](Cc1cccc2ccccc12)C(=O)O; 2Nal = N[C@@H](Cc1ccc2ccccc2c1)C(=O)O; X1 = O=C([C@@H]1CC(O)CN1[*:1])[*:2]; hPhe = N[C@@H](CCc1ccccc1)C(=O)O; Phg = N[C@H](C(=O)O)c1ccccc1; Tle = CC(C)(C)[C@H](N)C(=O)O; Nle = CCCC[C@H](N)C(=O)O; ξPip = O=C(O)C1CCCCN1; Aib = CC(C)(N)C(=O)O; ξNMeA = CNC(C)C(=O)O; ξAze = O=C(O)C1CCN1; Sar = CNCC(=O)O

T1 sequence (P98170 whole entry, the tested form may be a part): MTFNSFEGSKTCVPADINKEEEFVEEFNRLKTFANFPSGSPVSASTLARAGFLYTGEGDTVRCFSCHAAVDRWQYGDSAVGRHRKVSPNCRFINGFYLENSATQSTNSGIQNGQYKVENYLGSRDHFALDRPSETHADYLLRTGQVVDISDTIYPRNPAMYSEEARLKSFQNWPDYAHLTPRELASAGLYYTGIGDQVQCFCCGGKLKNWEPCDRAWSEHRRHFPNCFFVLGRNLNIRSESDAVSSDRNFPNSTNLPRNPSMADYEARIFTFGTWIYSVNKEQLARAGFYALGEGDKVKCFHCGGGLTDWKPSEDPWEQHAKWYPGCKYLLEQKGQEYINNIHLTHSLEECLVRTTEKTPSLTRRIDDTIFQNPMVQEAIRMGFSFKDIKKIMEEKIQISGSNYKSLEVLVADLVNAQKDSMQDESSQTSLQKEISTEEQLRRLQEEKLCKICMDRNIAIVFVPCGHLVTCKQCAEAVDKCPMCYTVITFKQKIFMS
Description for HL-60: The compound was tested for toxicity against human leukemia cancer cell line HL-60
Description for SK-MEL-5: The compound was tested for toxicity against human melanoma cancer cell line SK-MEL-5

H-AVPLY-OH: in assay [1], binding was characterised by a dissociation constant (Kd) of 280 nM.
Same read-out and setting: in the case of `CC(C)[C@H](NC(=O)[C@H](C)N)C(=O)N1CCCCC1C(=O)N[C@@H](Cc1ccccc1)C(=O)N[C@@H](Cc1ccc(O)cc1)C(=O)O` (some centres not stated) (H-AV[ξPip]FY-OH) it was 400 nM; in that of H-AGPFY-OH, 2700 nM; in that of H-AKPFY-OH, 50 nM.
Same read-out and setting: the result for `CC(C)C(NC(=O)[C@H](C)N)C(=O)N1CCC[C@H]1C(=O)N[C@@H](Cc1ccccc1)C(=O)N[C@@H](Cc1ccc(O)cc1)C(=O)O` (single isomer, unassigned) reads above 20000 nM; that for `CN[C@@H](C)C(=O)N[C@H](C(=O)N1CCC[C@H]1C(=O)N[C@@H]1CCc2ccccc21)C(C)(C)C`, 20 nM.
The same measure, in the same setting: the result for `CC(C)[C@H](NC(=O)[C@H](C)N)C(=O)N(C)C(C)C(=O)N[C@@H](Cc1ccccc1)C(=O)N[C@@H](Cc1ccc(O)cc1)C(=O)O` (some centres not stated) (H-AV[ξNMeA]FY-OH) reads 1600 nM.
Turning to `CC(C(=O)N[C@H](C(=O)N1C[C@@H](Oc2ccccc2)C[C@H]1C(=O)NC1CCCc2ccccc21)C(C)(C)C)N(C)C` (some centres not stated), the EC50 in [2] and in assay [3] was above 100 µM in each case. Also, the Kd (usually the free concentration of one partner at which half of the binding sites on the other are occupied at equilibrium, for simple one-to-one binding) in assay [1] was above 1000 nM.
As to `CC(C)[C@H](NC(=O)[C@H](C)N)C(=O)N1CCC[C@H]1C(=O)N[C@H](C(=O)N[C@@H](Cc1ccc(O)cc1)C(=O)O)c1ccccc1` (H-AVP[Phg]Y-OH), the Kd in [1] came to 30 nM.
`CC(C)[C@@H](NC(=O)[C@H](C)N)C(=O)N1CCC[C@H]1C(=O)N[C@@H](Cc1ccccc1)C(=O)N[C@@H](Cc1ccc(O)cc1)C(=O)O`: the Kd in [1] is 90 nM and 120 nM.
For `C[C@@H](C(=O)N[C@H](C(=O)N1CCC[C@H]1C(=O)N[C@@H]1CCCc2ccccc21)C1CCCCC1)N(C)C`, the EC50 (as a rule, the concentration that produces a half-maximal response) in assay [4] was above 50 µM; in the assay on HL-60, 4300 nM; in assay [5], above 25 µM; in [6] it was 1000 nM; in [7], 3400 nM; in assay [8] it was above 50000 nM. Further, the results for the EC50 (in the assay with SK-MEL-5; in assay [9]) were 15000 nM and above 50000 nM, respectively.
On to H-AVPFG-OH, for which the Kd in assay [1] was determined as 3400 nM.
Regarding `CN[C@@H](C)C(=O)N[C@H](C(=O)N1CCC[C@H]1C(=O)N[C@H]1CCCc2ccccc21)C(C)(C)C`, the EC50 was 5.6 µM in assay [5] and 3000 nM in assay [7].
Turning to `CN[C@@H](C)C(=O)N[C@H](C(=O)N1CCC[C@H]1C(=O)N[C@@H]1CCCc2ccccc21)C(C)(C)C`, the EC50 in assay [4] was 5.3 µM; in the assay with HL-60, 990 nM; in assay [5], 1.5 µM; in assay [6] it was 10 nM; in assay [7], 60 nM; in assay [8], 1700 nM. The EC50 in the assay with SK-MEL-5 was found to be 1300 nM; in assay [9], 810 nM.
In turn, `CC(C)[C@H](NC(=O)[C@H](C)N)C(=O)N1CCC[C@H]1C(=O)N[C@@H](CCc1ccccc1)C(=O)N[C@@H](Cc1ccc(O)cc1)C(=O)O` (H-AVP[hPhe]Y-OH) yielded a dissociation constant (Kd) in assay [1] of 180 nM. In other words, the sub-micromolar range.
`CC(C)[C@@H](C(=O)N1CCC[C@H]1C(=O)N[C@@H](Cc1ccccc1)C(=O)N[C@@H](Cc1ccc(O)cc1)C(=O)O)N(C)C`: binding in [1] was characterised by a dissociation constant (Kd) of 8700 nM.
On the same count and under the same terms, the result for `CC(C)[C@H](NC(=O)[C@H](C)N)C(=O)N1CCC[C@H]1C(=O)N[C@@H](Cc1cccc2ccccc12)C(=O)N[C@@H](Cc1ccc(O)cc1)C(=O)O` (H-AVP[1Nal]Y-OH) reads 90 nM.
The compound `CC(C)[C@H](NC(=O)[C@H](C)N)C(=O)N1CC(O)C[C@H]1C(=O)N[C@@H](Cc1ccccc1)C(=O)N[C@@H](Cc1ccc(O)cc1)C(=O)O` (some centres not stated) (H-AV[X1]FY-OH) returned a Kd in assay [1] of 800 nM.
Consider `CNC(C)C(=O)N[C@H](C(=O)N1CCC[C@H]1C(=O)N[C@@H]1CCCc2ccccc21)C(C)(C)C` (single isomer, unassigned), for which the concentration for a half-maximal effect (EC50) in assay [5] is above 50 µM; in assay [7], 8300 nM.
`C[C@H](N)C(=O)N[C@H](C(=O)N1CCC[C@H]1C(=O)N[C@@H](Cc1ccccc1)C(=O)N[C@@H](Cc1ccc(O)cc1)C(=O)O)C(C)(C)C` (H-A[Tle]PFY-OH) returned a Kd in assay [1] of 40 nM.
Compound H-GVPFY-OH came in with a dissociation constant (Kd) in assay [1] of 9600 nM.
Same read-out and setting: in the case of `CN[C@@H](C)C(=O)N[C@H](C(=O)N1CCC[C@H]1C(=O)NC1c2ccccc2-c2ccccc21)C(C)(C)C` it was 40 nM; in that of `CC(C)[C@H](NC(=O)[C@H](C)N)C(=O)NC(C)(C)C(=O)N[C@@H](Cc1ccccc1)C(=O)N[C@@H](Cc1ccc(O)cc1)C(=O)O` (H-AV[Aib]FY-OH), above 20000 nM; in that of `CC(C)[C@H](NC(=O)[C@H](C)N)C(=O)N(C)CC(=O)N[C@@H](Cc1ccccc1)C(=O)N[C@@H](Cc1ccc(O)cc1)C(=O)O` (H-AV[Sar]FY-OH), 600 nM.
On to H-AVGFY-OH, for which the Kd in assay [1] was 3000 nM.
As for H-AVPYY-OH, the affinity in [1], expressed as Kd, was 300 nM. Compared with the last compound, the Kd is about 10-fold lower.
The same measure, in the same setting: in the case of `CC(C)[C@H](NC(=O)[C@H](C)N)C(=O)N1CCC1C(=O)N[C@@H](Cc1ccccc1)C(=O)N[C@@H](Cc1ccc(O)cc1)C(=O)O` (some centres not stated) (H-AV[ξAze]FY-OH) it was 120 nM.
In [1], `CC(C)[C@H](NC(=O)[C@H](C)N)C(=O)N1CCC[C@H]1C(=O)N[C@@H](Cc1ccc2ccccc2c1)C(=O)N[C@@H](Cc1ccc(O)cc1)C(=O)O` (H-AVP[2Nal]Y-OH) came in with a Kd of 190 nM.
Same read-out and setting: the result for `CCCC[C@H](NC(=O)[C@@H]1CCCN1C(=O)[C@@H](NC(=O)[C@H](C)N)C(C)C)C(=O)N[C@@H](Cc1ccc(O)cc1)C(=O)O` (H-AVP[Nle]Y-OH) reads 900 nM; that for `C[C@H](N)C(=O)NC(C)(C)C(=O)N1CCC[C@H]1C(=O)N[C@@H](Cc1ccccc1)C(=O)N[C@@H](Cc1ccc(O)cc1)C(=O)O` (H-A[Aib]PFY-OH), above 20000 nM; that for H-VVPFY-OH, 900 nM.
In assay [1], `CC(C)C[C@@H](NC(=O)[C@H](C)N)C(=O)N1CCC[C@H]1C(=O)N[C@@H](Cc1ccccc1)C(=O)N[C@@H](Cc1ccc(O)cc1)C(=O)O` showed a Kd of 160 nM.
The same measure, in the same setting: the result for H-AVPIY-OH reads 360 nM; that for `CC(C)[C@H](NC(=O)[C@H](C)N)C(=O)N1CCC[C@H]1C(=O)N[C@@H](Cc1ccc(Cl)cc1)C(=O)N[C@@H](Cc1ccc(O)cc1)C(=O)O` (H-AVP[Phe(4-Cl)]Y-OH), 180 nM.
`CN[C@@H](C)C(=O)N[C@H](C(=O)N1CCC[C@H]1C(=O)N[C@@H]1CCCc2ccccc21)C1CCCCC1`: the EC50 was 1.5 µM in [4]; 190 nM with HL-60; 1.3 µM in assay [5]; 7 nM in [6]; 10 nM in assay [7]; 2000 nM in assay [8]. The 50% effective concentration (EC50) in the assay with SK-MEL-5 came out at 290 nM; in assay [9], 1100 nM.
Compound `CC(C(=O)N1CCC[C@H]1C(=O)N[C@@H](Cc1ccccc1)C(=O)N[C@@H](Cc1ccc(O)cc1)C(=O)O)N(C)C(=O)[C@H](C)N` (some centres not stated) (H-A[ξNMeA]PFY-OH) yielded a Kd in [1] above 20000 nM.
Compound `CC(C)[C@H](NC(=O)[C@H](C)N)C(=O)N1CCC[C@H]1C(=O)NC(C)(C)C(=O)N[C@@H](Cc1ccc(O)cc1)C(=O)O` (H-AVP[Aib]Y-OH) came in with a Kd in [1] of 6700 nM.

The values above are taken from ChEMBL document CHEMBL1138686, “Discovery of potent antagonists of the antiapoptotic protein XIAP for the treatment of cancer” (J Med Chem, 2004).
